Test results published in article PMC9599717, “The Multicellular Effects of VDAC1 N-Terminal-Derived Peptide” (Biomolecules, 2022).

System: U-87MG (human glioblastoma)
Assay: Cell death by PI staining and flow cytometry (FACS), U-87MG
Assay type: cell-based
Conditions: U-87MG cells
Method: MEC-1 cells were incubated in a serum-free medium with various concentrations of VDAC1-based peptides for 1.5 h at room temperature (RT), collected by centrifugation, washed with phosphate-buffered saline (PBS), and analyzed for cell death. Adherent cancer cells were seeded in culture plates and allowed to adhere overnight in a sterile cell culture incubation chamber maintained at 37 °C and 5% CO2. The next day, media was removed from the plates, and cells were treated with various concentrations of VDAC1-based peptides for the indicated time in serum-free Dulbecco’s Modified Eagle Medium (DMEM) with and without DMSO (final 0.15%) as a control for 6 h at 37 °C and 5% CO2. Cells were trypsinized, centrifuged (1500× g, 5 min), and washed with PBS.
Cell death was analyzed by the propidium iodide (PI) staining, followed by flow cytometry with the iCyt sy3200 Benchtop Cell Sorter/Analyzer and analysis with EC800 v 1.3.7 software (Sony Biotechnology Inc., San Jose, CA, USA). Apoptosis was analyzed by PI and annexin V-FITC staining, which was carried out according to the manufacturer’s instructions with minor modifications. U-87MG cells, untreated (control) or treated with various concentrations of VDAC1-based peptides, were harvested and washed once with binding buffer (10 mM HEPES/NaOH, pH 7.4, 140 mM NaCl, and 2.5 mM CaCl2). […] Next, cells were washed and PI (6.25 μg/mL), was added immediately before flow cytometry At least 10,000 events were collected, recorded on a dot plot, and analyzed by flow cytometry.
Figure 1 VDAC1-based peptides induced cell death in various cancer cell lines. […] (E) Human cervix adenocarcinoma (HeLa) (▲) and human glioblastoma (U-87MG) (●, ○) cell lines were incubated 6 h with the indicated concentrations of D-Δ(1-18)N-Ter-Antp peptide and analyzed for cell death PI staining and flow cytometry (o,▲) or FITC–annexin V/PI staining and flow cytometry analysis (●). (F) U-87MG cells were treated with 10 µM (○), 20 µM (●) or without (Δ) of D-Δ(1-18)N-Ter-Antp peptide for the indicated times, and cell death was analyzed by PI staining and flow cytometry. […]

19-FTKGYGFGL-26- RQIKIWFQNRRMKWKK [D-Δ(1-18)N-Ter-Antp]
Cell death in time course (3-h incubation, 10 or 20 µM tested (Figure 1F), PI staining): about 70%
Maximal cell death (at the concentration for maximal cell death) (6 h): 70%
IC50 (6 h incubation, serum-free medium, PI staining and FACS, read-out: IC50, peptide concentration required for half-maximal cell death activity): 6 µM
